Experimental findings from ChEMBL document CHEMBL4834492, “Targeting the KRAS G12D Mutant as Potential Therapy in Cancer” (ACS Med Chem Lett, 2021) are described below.

pIC50: −log10 of the molar value.

The subject of test [1] is A-427. The test is described as follows: Antiproliferative activity against human A427 cells expressing KRAS G12D mutant assessed as inhibition of cell growth measured after 3 days by CellTiter-Glo assay. The format is functional, cell-based. The note with it: A-427, 72 h.
The target of test [2] is GTPase KRas (Homo sapiens, UniProt P01116, G12D). Kind of test: Inhibition of recombinant his-tagged KRAS G12D mutant (unknown origin) expressed in Escherichia coli BL21(DE3) assessed as inhibition of GDP-GTP exchange rate in presence of recombinant SOS1/GMPPNP incubated for 1 hr by BODIPY fluorescence assay.
GTPase KRas, sequence (P01116 whole entry G12D): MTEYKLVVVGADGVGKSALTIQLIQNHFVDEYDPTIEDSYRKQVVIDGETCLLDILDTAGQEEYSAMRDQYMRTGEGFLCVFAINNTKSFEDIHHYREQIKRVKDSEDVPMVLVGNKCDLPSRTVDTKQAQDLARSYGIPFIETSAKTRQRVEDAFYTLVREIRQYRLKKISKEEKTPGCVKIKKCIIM

For `CN1C[C@H](F)C[C@H]1COc1nc2c(c(N3CC4CCC(C3)N4)n1)CCN(c1cc(O)cc3cccc(Br)c13)C2`, the pIC50 (as a rule, the negative decadic logarithm of the IC50, by convention in mol/L) in test [1] was 6.19.

Turning to `Cc1cccc2cc(O)cc(N3CCc4c(nc(OCC5(CN6CCOCC6)CC5)nc4N4CC5CCC(C4)N5)C3)c12`, in test [1], the pIC50 was 6.26.

Take `Oc1cc(N2CCc3c(nc(OCC4(CN5CCOCC5)CC4)nc3N3CC4CCC(C3)N4)C2)c2c(I)cccc2c1`: in test [1], the negative logarithm of the IC50 (pIC50) is 6.46.

Consider `CN(C)CC1(COc2nc3c(c(N4CC5CCC(C4)N5)n2)CCN(c2cc(O)cc4cccc(I)c24)C3)CC1`, for which the pIC50 in test [1] is 6.24.

As for `CN(C)CC1(COc2nc3c(c(N4CC5CCC(C4)N5)n2)CCN(c2cc(O)cc4cccc(Br)c24)C3)CC1(F)F` (centres undefined), in test [1], the negative logarithm of the IC50 (pIC50) is 6.27.

Take `Oc1cc(N2CCc3c(nc(OCC4(CN5CC[C@@H](F)C5)CC4)nc3N3CC4CCC(C3)N4)C2)c2c(I)cccc2c1`: the negative logarithm of the IC50 (pIC50) in test [1] was 6.33.

For `Oc1cc(N2CCc3c(nc(OCC4(CN5CCOCC5)CC4)nc3N3CC4CCC(C3)N4)C2)c2c(Br)cccc2c1`, the pIC50 in test [2] is 8.92; in test [1], 6.23.

Take `Oc1cc(N2CCc3c(nc(OCC4(CN5CC[C@@H](F)C5)CC4)nc3N3CC4CCC(C3)N4)C2)c2c(Br)cccc2c1`: the pIC50 in test [1] was 6.27.
